For one data set, the target named is T1, ER (estrogen receptor) (Homo sapiens, UniProt P03372).
T1 construct: MCF-7/ERE-luciferase monoclonal cells were selected by transfection of MCF-7; host or cells: MCF-7/ERE-luciferase (only the ERE-luciferase reporter was transfected)
T1 sequence (P03372 1-595): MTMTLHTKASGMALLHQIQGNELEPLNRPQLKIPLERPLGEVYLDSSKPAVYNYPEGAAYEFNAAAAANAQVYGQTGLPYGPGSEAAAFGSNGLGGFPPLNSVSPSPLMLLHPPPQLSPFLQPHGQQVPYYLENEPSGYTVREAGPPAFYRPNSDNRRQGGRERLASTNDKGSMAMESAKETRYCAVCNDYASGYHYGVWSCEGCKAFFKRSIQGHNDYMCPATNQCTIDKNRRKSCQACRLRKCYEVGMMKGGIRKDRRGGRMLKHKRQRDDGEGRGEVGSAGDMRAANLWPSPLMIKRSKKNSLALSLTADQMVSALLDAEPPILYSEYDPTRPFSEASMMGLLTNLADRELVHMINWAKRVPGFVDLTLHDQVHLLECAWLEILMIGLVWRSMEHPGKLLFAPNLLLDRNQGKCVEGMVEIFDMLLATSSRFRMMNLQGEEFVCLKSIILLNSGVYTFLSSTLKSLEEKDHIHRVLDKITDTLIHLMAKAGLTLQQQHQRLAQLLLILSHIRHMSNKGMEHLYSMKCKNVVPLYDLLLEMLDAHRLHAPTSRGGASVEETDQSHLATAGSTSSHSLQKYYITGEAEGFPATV
The experiment in a line: Inhibition of the binding of estrogen (E) to estrogen receptor (ER), MCF-7/ERE-luciferase reporter cells. It is filed as cell-based. Conditions: MCF-7/ERE-luciferase cells, 0.1 nM estradiol, 24 hours, chemiluminescence; read-out: IC50 value of inhibition effect on the binding of E to ER. Summed up:
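MCF-7 cells stably carrying an ERE-luciferase reporter, grown in charcoal-stripped FBS medium, were treated with compound plus 0.1 nM estradiol for 24 h at 37 °C. Luciferase chemiluminescence was then read and plotted against log compound concentration to derive IC50.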

Data set [1] can be described thus: Pharmacokinetics assay in BALB/C nude mice after intragastrical administration. It is filed as in vivo. To be noted: female, mouse, po, 3 mg/kg, plasma; for Vd/F: read-out: Apparent Distribution Volume Vz/F; for AUC: read-out: Area Under Curve AUC; for CL/F: read-out: Clearance CL/F; for half-life: read-out: Half-Life t1/2 (converted); for MRT: read-out: Mean Residence Time MRT; for Cmax: read-out: Plasma Conc. Cmax. As to the method: BALB/C nude mice were used as test animals. The drug concentration in plasma at different time points was determined by LC/MS/MS after intragastrical administration of the compounds of Examples 1, 7, 8, 10, 11, 14, 16, 39 and 42 to BALB/C nude mice. The pharmacokinetic behavior of the compounds of the compounds of the present invention was studied and evaluated in BALB/C nude mice.
Eighty-one (81) female BALB/C nude mice, were equally divided into 9 groups, which were purchased from SINO-BRITSH SIPPR/BK LAB. ANIMAL LTD., CO, with Certificate No.: SOCK (Shanghai) 2008-0016.
The appropriate amount of each test compound was weighed, and successively added with 9% PEG400+0.5% tween 80+0.5% PVP+90% aqueous solution of 0.5% CMC.
After an overnight fasting, 81 female BALB/C nude mice were equally divided into 9 groups; and administered the test compounds intragastrically at an administration volume of 0.2 mL/10 g.
81 female Balb/C nude mice were administered the test compounds intragastrically after an overnight fasting. Blood (0.1 mL) was taken (3 animals at each time point) at 0.5, 1.0, 2.0, 4.0, 6.0, 8.0, 11.0, and 24.0 h after administration. The samples were stored in heparinized test tubes, and centrifuged for 10 minutes at 3,500 rpm to separate the blood plasma. The plasma samples were stored at −20° C.
The concentration of the prototype drug in the plasma and in the solution to be administered was determined by liquid chromatography tandem mass spectrometry (LC/MS MS).

`CC(C)c1ccc(N2[C@H](c3ccc(/C=C/C(=O)O)cc3)c3ccc(-c4cnn(C)c4)cc3C[C@H]2C)cc1` [Example 42, (E)-3-(4-((1R,3R)-2-(4-Isopropylphenyl)-3-methyl-6-(1-methyl-1H-pyrazol-4-yl)-1,2,3,4-tetrahydroisoquinolin-1-yl)phenyl)acrylic acid]: the IC50 – broadly, the concentration at which inhibition is half-maximal – at ER (estrogen receptor) was 0.52 nM. In data set [1], the Vd/F is 3.1 L/kg; the AUC – broadly, the area under the concentration-time curve, a measure of exposure – stood at 11200 ng·h/mL; the CL/F stood at 4.46 mL/min/kg; the half-life is 8.04 h. Besides, in data set [1], the mean residence time (MRT) – broadly, a mean duration of stay, worked out from the concentration-time curve – is 9.21 h and the Cmax (in general, the maximum level reached in the sampled fluid or tissue) came to 1270 ng/mL.

Regarding `CCn1cc(-c2ccc3c(c2)CC(C)N(c2ccc(C(C)C)cc2)C3c2ccc(/C=C/C(=O)O)cc2)cn1` [Example 7, (E)-3-(4-((1R,3R/1S,3S)-6-(1-Ethyl-1H-pyrazol-4-yl)-2-(4-isopropylphenyl)-3-methyl-1,2,3,4-tetrahydroisoquinolin-1-yl)phenyl)acrylic acid], at ER (estrogen receptor), the IC50 stood at 1.79 nM. In data set [1], the Vd/F is 1.23 L/kg, the AUC came out at 12900 ng·h/mL, the CL/F stood at 3.88 mL/min/kg and the half-life is 3.67 h. In addition, in data set [1], the MRT worked out at 6.8 h and the Cmax worked out at 1280 ng/mL.

In the case of `CCc1ccc(N2C(C)Cc3cc(-c4cnn(C)c4)ccc3C2c2ccc(/C=C/C(=O)O)cc2)cc1` [Example 1, (E)-3-(4-((1R,3R/1S,3S)-2-(4-Ethylphenyl)-3-methyl-6-(1-methyl-1H-pyrazol-4-yl)-1,2,3,4-tetrahydroisoquinolin-1-yl)phenyl)acrylic acid], the IC50 at ER (estrogen receptor) was 2.11 nM. Further, in data set [1], the Vd/F was 0.865 L/kg, the AUC was 14400 ng·h/mL, the CL/F came out at 3.48 mL/min/kg and the half-life is 2.87 h. In data set [1], the MRT came to 4.53 h and the Cmax stood at 3440 ng/mL.

Consider `CCn1cc(-c2ccc3c(c2)C[C@@H](C)N(c2ccc(C4CC4)cc2)[C@@H]3c2ccc(/C=C/C(=O)O)cc2)cn1` [Example 14, (E)-3-(4-((1R,3R)-2-(4-Cyclopropylphenyl)-6-(1-ethyl-1H-pyrazol-4-yl)-3-methyl-1,2,3,4-tetrahydroisoquinolin-1-yl)phenyl)acrylic acid], for which the IC50 at ER (estrogen receptor) is 0.25 nM. For the same compound, in data set [1], the Vd/F stood at 1.26 L/kg, the AUC was 14800 ng·h/mL, the CL/F is 3.39 mL/min/kg and the half-life was 4.29 h. In data set [1], the MRT was found to be 6.73 h and the Cmax was determined as 2480 ng/mL.

In the case of `C[C@@H]1Cc2cc(-c3cnn(C)c3)ccc2[C@@H](c2ccc(/C=C/C(=O)O)cc2)N1c1ccc(C2CC2)cc1` [Example 11, (E)-3-(4-((1R,3R)-2-(4-Cyclopropylphenyl)-3-methyl-6-(1-methyl-1H-pyrazol-4-yl)-1,2,3,4-tetrahydroisoquinolin-1-yl)phenyl)acrylic acid], the IC50 on ER (estrogen receptor) is 0.32 nM. Further, in data set [1], the Vd/F is 1.48 L/kg, the AUC worked out at 16400 ng·h/mL, the CL/F was determined as 3.06 mL/min/kg and the half-life is 5.58 h. Also, in data set [1], the MRT is 7.9 h and the Cmax was determined as 1890 ng/mL.

For the compound `CCn1cc(-c2ccc3c(c2)C[C@@H](C)N(c2ccc(C(C)C)cc2)[C@@H]3c2ccc(/C=C/C(=O)O)cc2)cn1` [Example 8, (E)-3-(4-((1R,3R)-6-(1-Ethyl-1H-pyrazol-4-yl)-2-(4-isopropylphenyl)-3-methyl-1,2,3,4-tetrahydroisoquinolin-1-yl)phenyl)acrylic acid], the half-inhibitory concentration (IC50) on ER (estrogen receptor) is 0.39 nM. Moreover, in data set [1], the Vd/F stood at 1.51 L/kg, the AUC came to 9380 ng·h/mL, the CL/F worked out at 5.33 mL/min/kg and the half-life is 3.27 h. Also, in data set [1], the MRT was determined as 5.26 h and the Cmax worked out at 1620 ng/mL.

Values taken from patent publication US10398689B2, “Benzopiperidine derivative, preparation method thereof and medical use thereof” (Jiangsu Hengrui Medicine Co., Ltd., priority 2015, dated 2019).
